Where “and” joins values, the source holds several entries; their conditions need not be identical. Equal values may be shown once.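 Tested at 5 concentrations; 48 h exposure; 96-well plates; endpoints linearly interpolated, else capped at highest concentration. Abbreviation: GI50, concentration required for 50% inhibition of growth. At the TGI there is no net growth.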
How the values were obtained:
Assay in all cases: NCI-60 cell line screen, 48 h
MOLT-4 leukemia = test system: MOLT-4 leukemia
EKVX NSCLC = test system: EKVX NSCLC
LXFL 529 NSCLC = test system: LXFL 529 NSCLC
OVCAR-3 ovarian = test system: OVCAR-3 ovarian
UO-31 renal = test system: UO-31 renal
HOP-62 NSCLC = test system: HOP-62 NSCLC
U251 CNS = test system: U251 CNS
HOP-18 NSCLC = test system: HOP-18 NSCLC
HOP-92 NSCLC = test system: HOP-92 NSCLC
MDA-MB-231 breast = test system: MDA-MB-231 breast

Row | SMILES | TGI (MOLT-4 leukemia) | TGI (EKVX NSCLC) | TGI (LXFL 529 NSCLC) | TGI (OVCAR-3 ovarian) | TGI (UO-31 renal) | TGI (HOP-62 NSCLC) | TGI (U251 CNS) | TGI (HOP-18 NSCLC) | TGI (HOP-92 NSCLC) | GI50 (HOP-18 NSCLC) | GI50 (MOLT-4 leukemia) | GI50 (EKVX NSCLC) | GI50 (OVCAR-3 ovarian) | GI50 (UO-31 renal) | GI50 (HOP-62 NSCLC) | GI50 (HOP-92 NSCLC) | TGI (MDA-MB-231 breast) | GI50 (U251 CNS) | GI50 (MDA-MB-231 breast)
1 | CCOC(=N)CC(=O)Nc1ccc(Cl)cc1 | > 100 µM | > 100 µM | > 100 µM | > 100 µM | > 100 µM | > 100 µM | > 100 µM | – | – | – | – | – | – | – | – | – | – | – | –
2 | CCCCCCCCCCCCCS(=O)(=O)O | – | > 100 µM | > 100 µM | > 100 µM | > 100 µM | > 100 µM | > 100 µM | > 100 µM | > 100 µM | – | – | – | – | – | – | – | – | – | –
3 | Cc1[nH]c(=O)[nH]c(=O)c1N(CCF)CCCl | 254 µM and 393 µM and 563 µM | 443 µM and 762 µM and 1200 µM | – | 356 µM and 1350 µM and 972 µM | 1940 µM and 1110 µM | 872 µM and 1100 µM and 1150 µM | 693 µM and 1220 µM and 1200 µM | 927 µM and 2060 µM and 1190 µM | 329 µM and 466 µM and 363 µM | 401 µM and 719 µM and 415 µM | 60.8 µM and 80.6 µM and 43.1 µM | 165 µM and 406 µM and 557 µM | 147 µM and 530 µM | 723 µM and 245 µM | 439 µM | 153 µM | 888 µM | 212 µM | –
4 | COC(=O)/C=C/c1cc(O)c2c(c1)C(C(=O)OC)C(c1ccc(O)c(O)c1)O2 (stereo not drawn) | 25.3 µM and 27.8 µM | 78.5 µM and > 100 µM | – | – | 23.6 µM and 30.7 µM | > 72.4 µM and 46.5 µM | 46.2 µM and 23.2 µM | – | > 55 µM and 9.3 µM | – | 0.12 µM and 0.0553 µM | 0.851 µM and 0.418 µM | < 0.0488 µM | 0.855 µM and 0.301 µM | 0.493 µM and 0.137 µM | – | 18.2 µM and 47.1 µM | 0.116 µM | 0.192 µM and 0.308 µM
5 | O=C(Nc1ccc(S(=O)(=O)Nc2nccs2)cc1)c1cccnc1Nc1cccc(Cl)c1 | 88.9 µM | > 100 µM | – | 27.4 µM | 32.3 µM | 31.3 µM | 26.1 µM | – | 36.5 µM | – | 12.5 µM | 18.3 µM | 13.1 µM | 13.8 µM | 16.2 µM | 11.2 µM | 21.4 µM | 13.2 µM | 5.73 µM
6 | C=C1C(=O)O[C@H]2[C@H]1CC/C(COC(=O)C(=O)c1c[nH]c3ccccc13)=C\CC[C@@]1(C)O[C@@H]21 | 7.3 µM | 20.7 µM | – | 4.63 µM | 3.58 µM | 4 µM | 3.64 µM | – | 4.49 µM | – | 2.2 µM | 8.31 µM | 1.86 µM | 1.84 µM | 1.72 µM | 2.04 µM | 5.5 µM | 1.86 µM | 2.46 µM
7 | O=C1c2ccccc2-c2c1c1ccccc1c(=O)n2Cc1ccco1 | > 100 µM | > 100 µM | – | > 100 µM | > 100 µM | > 100 µM | > 100 µM | – | > 100 µM | – | – | – | – | – | – | – | > 100 µM | – | –
8 | CC(Cn1c2c3ccccc3ccc2c2oc(=O)c3ccccc3c21)N(C)C (stereo not drawn) | > 100 µM | > 100 µM | > 100 µM | > 100 µM | > 100 µM | – | > 100 µM | – | > 100 µM | – | – | – | – | – | – | – | – | – | –
9 | CCCN1C(=O)C/C(=C\C(C)=O)Nc2ccccc21 | > 100 µM | > 100 µM | > 100 µM | > 100 µM | > 100 µM | > 100 µM | > 100 µM | – | > 100 µM | – | – | – | – | – | – | – | – | – | –
10 | CCCc1c2c([nH]c(=O)c1C)C(=O)c1[nH]c(=O)c(C)c(CCC)c1C2=O | 57 µM | – | > 100 µM | 5.97 µM | > 100 µM | > 100 µM | – | > 100 µM | 93.8 µM | – | – | – | – | – | – | – | – | – | –
